Test results taken from patent US11465978B2, “Anthranilic amides and the use thereof” (THE ADMINISTRATORS OF THE TULANE EDUCATIONAL FUND, priority 2013, dated 2022).

What was measured:
[1] = tested on: MDA-MB 231 cells; assay: Crystal violet proliferation study; format: cell-based
Description: FIG. 11 is a graph showing the results of MDA-MB 231 proliferation studies. MDA-MB 231 cells were used as they express the triple negative cancer phenotype. Compound 3 was selected due to potency in inhibition of both MEK1/2 and MEK5. MDA-MB 231 cells were plated at 10,000 cells per well in a 96 well TC plate in 5% Charcoal-Dextran stripped media and incubated overnight at 37° C. in 5% CO2. The cells were treated with drug or vehicle the following day. Plates were harvested on days 3, 5 and 7 and stained with Crystal Violet. […] The cells were washed, lysed, and the absorbance of Crystal Violet sequestered in living cells was determined at […]. Wells were conducted in duplicate. Experiments were run in triplicate. Cells were normalized to initial cell count.
Proliferation studies were conducted using MDA-MB 231 cells, as they express the triple negative cancer phenotype. […] The cells were washed, lysed, and the absorbance of Crystal Violet sequestered in living cells was determined at […]. […]
Triple-negative breast cancer (TNBC) cells MDA-MB-231 were seeded in 96-well plates at a density of 2,000 cells per well in 5% charcoal-stripped phenol free DMEM, allowed to attach overnight, and subsequently treated with DMSO and MEK inhibitor compounds in duplicate. […] Cells were washed, lysed with 33% acetic acid, and the absorbance was read at 630 nm in a Biotek Synergy plate reader. […]

[2] = tested on: MDA-MB 231 cells; assay: Morphology (mesenchymal to epithelial phenotype) during proliferation testing; format: cell-based
Description: Proliferation studies were conducted using MDA-MB 231 cells, as they express the triple negative cancer phenotype. Compound 3 was selected due to its potency in inhibition of both MEK1/2 and MEK5. MDA-MB 231 cells were plated at 10,000 cells per well in a 96 well TC plate in 5% Charcoal-Dextran stripped media and incubated overnight at 37° C. in 5% CO2. The cells were treated with drug or vehicle the following day. Plates were harvested on days 3, 5 and 7 and stained with Crystal Violet. […] The cells were washed, lysed, and the absorbance of Crystal Violet sequestered in living cells was determined at […]. Wells were conducted in duplicate. Experiments were run in triplicate. Cells were normalized to initial cell count.
Examination of the MDA-MB 231 cells during the proliferation testing period was conducted. Untreated (DMSO) cells retained an elongated spiky cellular morphology characteristic of the mobile and invasive mesenchymal phenotype. […] The observed phenotypic conversion persisted for 14 days without reversion back to the mesenchymal phenotype, see FIG. 12.

Question: Which “reduction in growth relative to untreated (DMSO)” value ([1]; 7 day time point) does the source give for `NC(=O)c1ccc(F)c(F)c1Nc1ccc(I)cc1F` [Compound 3, 3,4-difluoro-2-((2-fluoro-4-iodophenyl)amino)benzamide] here?
Answer: The value was 70%.

Question: And the overt cell death ([1]; even at saturation concentrations)?
Answer: Its overt cell death is “No overt cell death”.

Question: And the “conversion of mesenchymal to epithelial cellular morphology” value [2]?
Answer: The value was “more rounded cellular morphology”.

Question: What about the “persistence of phenotypic conversion without reversion to mesenchymal phenotype” value [2] of the same compound?
Answer: Its value is 14 days.

Question: What about the “conversion of cell phenotype” value ([2]; 10 μM) of the same compound?
Answer: Its value is “marked conversion of nearly all cells back to a more rounded phenotype”.
